In PMC10076643, “Design, synthesis and anticancer activity studies of 3-(coumarin-3-yl)-acrolein derivatives: Evidenced by integrating network pharmacology and vitro assay” (Frontiers in Pharmacology, 2023):

Assays:
Format in all cases: cell-based, human
KB cells [1] = assay: JC-1 mitochondrial membrane potential (MMP) assay; conditions: increasing concentration (0.5 IC50, IC50, 2 IC50), 48 h
Description: According to the predicted results of network pharmacology, compound 6e might stimulate the oxidative stress response of cancer cells. Oxidative stress reflects an imbalance between excessive production of reactive free radical and deficits in antioxidant biosystem ([Zhong et al., 2018]). Mitochondria are the main reactors that produce reactive free radicals in cells, and MMP is a key indicator of mitochondrial activity. Excessive oxidative stress can cause a decrease in MMP, which leads to the damage of mitochondrial. It is well-known that mitochondrial damage is a major trigger for the induction of cell apoptosis and necrosis ([Kharroubi et al., 2017]; [Meng et al., 2021]). Therefore, JC-1 staining was used to investigate the effect of compound 6e on the MMP (ΔΨm) of KB cells. In normal cells, JC-1 can form aggregates in healthy mitochondria, emitting red fluorescence, while in apoptotic cells, JC-1 will stay in monomers that emit green fluorescence, implying a low value of ΔΨm. Therefore, mitochondrial depolarization is manifested by a decrease in the ratio of red to green fluorescence intensity.
MMP was determined using the JC-1 mitochondria staining Kit (Aladdin, China). […] On one hand, JC-1 red and green fluorescence intensities were measured with Varioskan™ LUX Multimode Microplate Reader (Thermo Fisher Scientific, America) under the […]. […]

KB cells [2] = assay: Scratch wound healing assay; conditions: different concentrations (0.5 IC50, IC50, 2 IC50), after 24 h
Description: (§1) Wound healing assay and transwell assay were performed to investigate the effect of compound 6e on the migratory capability of KB cells.
In vitro wound-healing assay, KB cells (5 × 10^5 cells/well) were seeded into 6-well plates and incubated at 37 °C in humidified atmosphere with 5% CO2 for 12 h. As the cells were adherent to the wall and the degree of fusion reached more than 90%, cell layers were gently scratched with a 200 μL pipette tip. […] Images of cells were photographed with the inverted fluorescence microscope (Leica DMi8, Germany) at 0 h and 24 h. The areas that were not covered by cells in the scratch wound were quantified by using ImageJ. Then the values obtained in each group were expressed by the percentage of wound closure of cells in the control group. The experiments were performed in triplicate.

KB cells [3] = assay: Transwell migration assay; conditions: 2 IC50, 48 h
Description: as §1
Initially, KB cells (5×10^4 cells/well) were suspended in 200 μL of the FBS-free medium. Each upper chamber contained the vehicle and various concentrations of compound 6e (0.5 IC50, IC50, 2 IC50). Each lower chamber was filled with 600 μL of medium containing 10% FBS. After incubation at 37°C for 48 h, the cells upon the transwell membrane were removed with a cotton tip. The cells trapped on the bottom side of the membrane were fixed with methanol for 1 h and stained with crystal violet solution for 2 h. Subsequently, the chambers thoroughly washed with PBS. The migrated cells were then imaged with the inverted fluorescence microscope (Leica DMi8, Germany) and counted with ImageJ software for three independent fields randomly.

Bax in KB cells = assay: Western blot, Bax; conditions: 0.40 μM, 24 h
Description: Based on the results of network pharmacology, the key proteins related to PI3K/AKT pathway were detected by Western blotting to explore the antitumor mechanism of compound 6e. […] Such an inconsistency might be due to a compensatory increase in PI3K level after the reduction of AKT phosphorylation level. Additionally, the active-caspase 3 protein, anti-apoptosis protein Bcl-2 and pro-apoptosis protein Bax were further analyzed. Caspase-3 normally exists in the cytoplasm as zymogen. During the early stage of apoptosis, caspase-3 (32 KD) is cleaved to the active 17-kD caspase-3 fragment, which is responsible for morphological and biochemical changes in apoptosis. Bcl-2 and Bax are the […] located on the mitochondrial membrane and capable of controlling the MMP (ΔΨm) and the activation of caspase cascade.
A total of 4 × 10^5 KB cells were seeded into 6-well and grown for overnight. Then the cells adherent to the wall were treated with compound 6e in different concentrations (0, 0.40, 0.80, 1.60 μM) for 24 h. After that, cells were collected, SDS lysate, 100X protease inhibitor and 50X phosphorylation inhibitor were added in a certain proportion to lyse the cells. The protein content was determined by BCA reagent (Beyotime, China) according to the standard curve. […]

KB cells [4] = assay: Transwell invasion assay (Matrigel); conditions: 2 IC50, 48 h
Description: Transwell invasion assay was carried out to evaluate the effect of compound 6e on KB cell invasion.
For invasion assay, the transwells (8 μm pore size, Corning Incorporated) were precoated with 40 μL Matrigel for 2 h at 37°C to achieve solidification. KB cells were harvested and resuspended in serum-free medium, treated with different concentrations of compound 6e (0.5 IC50, IC50, 2 IC50), and added into the upper wells of the transwell chamber at density of 1×10^5 cells/200 μL. Then 600 μL of RPMI-1640 containing 10% FBS was added into each lower chamber. After 48 h, the invaded cells in the lower champers were fixed with paraformaldehyde for 1 h and stained with crystal violet solution for 2 h. The non-invading cells in the upper chambers of the transwell plates were scraped away by cotton swabs. Next, the chambers were washed with PBS. The invaded cells were then imaged with the inverted fluorescence microscope (Leica DMi8, Germany) and counted with ImageJ software for three independent fields randomly.

O=CC=C(Cl)c1cc2ccc(OCc3ccccc3)cc2oc1=O [Compound 6e, 3-(7-(Benzyloxy)-2-oxo-2H-chromen-3-yl)-3-chloroacrylaldehyde] was tested, and the “JC-1 ratio (red to green fluorescence)” value (KB cells [1]) was “significant decrease”, the “scratched gaps of KB cells” value (KB cells [2]) was “wider than that of the control group and 5-FU group” and the “number of migration cells reduced compared with the control group” value (KB cells [3]) was “approximately 93%”. For the same molecule, the “expression of Bax compared with the control group” value (Bax in KB cells) was “upregulated” and the “KB cell invasion reduced” value (KB cells [4]) was “more than 64%”.
